In patent US10336730B2, “Substituted glycine derived FXIA inhibitors” (BRISTOL-MYERS SQUIBB COMPANY, priority 2015, dated 2019):

These compounds were tested against T1, purified human Factor XIa (Homo sapiens, UniProt P03951) (assay: Factor XIa enzyme inhibition assay (chromogenic substrate S-2366), Ki). Conditions: substrate S-2366, pH 7.4.
T1 construct: purchased Haematologic Technologies
Assay type: biochemical
In short: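 Purified human Factor XIa ([…] final) with chromogenic substrate S-2366 (0.0002-0.001 M) in 50 mM HEPES pH 7.4, 145 mM NaCl, 5 mM KCl, 0.1% PEG 8000. Velocities measured over 20-180 minutes with and without inhibitor; Ki derived assuming competitive inhibition, e.g. Ki=IC50/(1+S/Km).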

T1 sequence (P03951 388-625 limits assumed): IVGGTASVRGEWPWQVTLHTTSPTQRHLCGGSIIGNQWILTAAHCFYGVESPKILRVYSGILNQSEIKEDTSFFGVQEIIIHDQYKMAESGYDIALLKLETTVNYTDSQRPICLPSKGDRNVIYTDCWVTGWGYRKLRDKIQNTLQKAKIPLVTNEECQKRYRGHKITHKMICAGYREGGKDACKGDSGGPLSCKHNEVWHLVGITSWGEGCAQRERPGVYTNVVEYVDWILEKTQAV
T1 sequence (P03951 19-387 partner limits assumed): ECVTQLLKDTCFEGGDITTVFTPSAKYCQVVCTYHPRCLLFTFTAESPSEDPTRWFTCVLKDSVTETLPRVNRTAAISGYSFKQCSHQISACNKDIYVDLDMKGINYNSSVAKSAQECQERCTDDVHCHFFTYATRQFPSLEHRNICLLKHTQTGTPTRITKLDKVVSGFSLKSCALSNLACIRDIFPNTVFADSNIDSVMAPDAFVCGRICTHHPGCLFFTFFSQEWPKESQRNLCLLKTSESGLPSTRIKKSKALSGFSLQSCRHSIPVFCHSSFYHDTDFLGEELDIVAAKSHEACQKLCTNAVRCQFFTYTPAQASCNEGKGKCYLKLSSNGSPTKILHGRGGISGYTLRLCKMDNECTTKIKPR

Row | SMILES | Ki
1 | Cn1ncc2cc(CNC(=O)[C@H](Cc3ccccc3)n3cnc(-c4cc(Cl)ccc4-n4cc(Cl)nn4)cc3=O)ccc21 [Example 79, (S)-2-(4-(5-chloro-2-(4-chloro-1H-1,2,3-triazol-1-yl)phenyl)-6-oxopyrimidin-1(6H)-yl)-N-((1-methyl-1H-indazol-5-yl)methyl)-3-phenylpropanamide] | 630 nM
2 | CC(C)c1cc(CNC(=O)[C@H](Cc2ccccc2)n2cnc(-c3cc(Cl)ccc3-n3cc(Cl)nn3)cc2=O)on1 [Example 80, (S)-2-(4-(5-chloro-2-(4-chloro-1H-1,2,3-triazol-1-yl)phenyl)-6-oxopyrimidin-1(6H)-yl)-N-((3-isopropylisoxazol-5-yl)methyl)-3-phenylpropanamide] | 3780 nM
3 | O=C([C@H](Cc1ccccc1)n1cnc(-c2cc(Cl)ccc2-n2cc(Cl)nn2)cc1=O)N1CCC(O)CC1 [Example 81, (S)-6-(5-chloro-2-(4-chloro-1H-1,2,3-triazol-1-yl)phenyl)-3-(1-(4-hydroxypiperidin-1-yl)-1-oxo-3-phenylpropan-2-yl)pyrimidin-4(3H)-one] | 4410 nM
4 | O=C(NCCc1ncn[nH]1)[C@H](Cc1ccccc1)n1cnc(-c2cc(Cl)ccc2-n2cc(Cl)nn2)cc1=O [Example 82, (S)-N-(2-(1H-1,2,4-triazol-5-yl)ethyl)-2-(4-(5-chloro-2-(4-chloro-1H-1,2,3-triazol-1-yl)phenyl)-6-oxopyrimidin-1(6H)-yl)-3-phenylpropanamide] | 7370 nM
5 | Cn1ccnc1N1CCN(C(=O)[C@H](Cc2ccccc2)n2cnc(-c3cc(Cl)ccc3-n3cc(Cl)nn3)cc2=O)CC1 [Example 83, (S)-6-(5-chloro-2-(4-chloro-1H-1,2,3-triazol-1-yl)phenyl)-3-(1-(4-(1-methyl-1H-imidazol-2-yl)piperazin-1-yl)-1-oxo-3-phenylpropan-2-yl)pyrimidin-4(3H)-one] | 3110 nM
6 | NS(=O)(=O)C1CCN(C(=O)[C@H](Cc2ccccc2)n2cnc(-c3cc(Cl)ccc3-n3cc(Cl)nn3)cc2=O)CC1 [Example 84, (S)-1-(2-(4-(5-chloro-2-(4-chloro-1H-1,2,3-triazol-1-yl)phenyl)-6-oxopyrimidin-1(6H)-yl)-3-phenylpropanoyl)piperidine-4-sulfonamide] | 2520 nM
7 | COCCNC(=O)[C@H](Cc1ccccc1)n1cnc(-c2cc(Cl)ccc2-n2cc(Cl)nn2)cc1=O [Example 85, (S)-2-(4-(5-chloro-2-(4-chloro-1H-1,2,3-triazol-1-yl)phenyl)-6-oxopyrimidin-1(6H)-yl)-N-(2-methoxyethyl)-3-phenylpropanamide] | 1730 nM
8 | O=C(NCCO)[C@H](Cc1ccccc1)n1cnc(-c2cc(Cl)ccc2-n2cc(Cl)nn2)cc1=O [Example 86, (S)-2-(4-(5-chloro-2-(4-chloro-1H-1,2,3-triazol-1-yl)phenyl)-6-oxopyrimidin-1(6H)-yl)-N-(2-hydroxyethyl)-3-phenylpropanamide] | 5500 nM
9 | CC(C)CCNC(=O)[C@H](Cc1ccccc1)n1cnc(-c2cc(Cl)ccc2-n2cc(Cl)nn2)cc1=O [Example 87, (S)-2-(4-(5-chloro-2-(4-chloro-1H-1,2,3-triazol-1-yl)phenyl)-6-oxopyrimidin-1(6H)-yl)-N-isopentyl-3-phenylpropanamide] | 210 nM
10 | O=C([C@H](Cc1ccccc1)n1cnc(-c2cc(Cl)ccc2-n2cc(Cl)nn2)cc1=O)N1CCC1 [Example 88, (S)-3-(1-(azetidin-1-yl)-1-oxo-3-phenylpropan-2-yl)-6-(5-chloro-2-(4-chloro-1H-1,2,3-triazol-1-yl)phenyl)pyrimidin-4(3H)-one] | 5610 nM
11 | CCCNC(=O)[C@H](Cc1ccccc1)n1cnc(-c2cc(Cl)ccc2-n2cc(Cl)nn2)cc1=O [Example 89, (S)-2-(4-(5-chloro-2-(4-chloro-1H-1,2,3-triazol-1-yl)phenyl)-6-oxopyrimidin-1(6H)-yl)-3-phenyl-N-propylpropanamide] | 1940 nM
12 | CN(C)CCCNC(=O)[C@H](Cc1ccccc1)n1cnc(-c2cc(Cl)ccc2-n2cc(Cl)nn2)cc1=O [Example 90, (S)-2-(4-(5-chloro-2-(4-chloro-1H-1,2,3-triazol-1-yl)phenyl)-6-oxopyrimidin-1(6H)-yl)-N-(3-(dimethylamino)propyl)-3-phenylpropanamide] | 5920 nM
13 | O=C(NCc1n[nH]c2c1CCCC2)[C@H](Cc1ccccc1)n1cnc(-c2cc(Cl)ccc2-n2cc(Cl)nn2)cc1=O [Example 91, (S)-2-(4-(5-chloro-2-(4-chloro-1H-1,2,3-triazol-1-yl)phenyl)-6-oxopyrimidin-1(6H)-yl)-3-phenyl-N-((4,5,6,7-tetrahydro-1H-indazol-3-yl)methyl)propanamide] | 2850 nM
14 | N#Cc1ccc(NC(=O)[C@H](Cc2ccccc2)n2cnc(-c3cc(Cl)ccc3-n3cc(Cl)nn3)cc2=O)cc1F [Example 92, (S)-2-(4-(5-chloro-2-(4-chloro-1H-1,2,3-triazol-1-yl)phenyl)-6-oxopyrimidin-1(6H)-yl)-N-(4-cyano-3-fluorophenyl)-3-phenylpropanamide] | 126 nM
15 | Cc1nccn1-c1ccc(NC(=O)[C@H](Cc2ccccc2)n2cnc(-c3cc(Cl)ccc3-n3cc(Cl)nn3)cc2=O)cc1 [Example 93, (S)-2-(4-(5-chloro-2-(4-chloro-1H-1,2,3-triazol-1-yl)phenyl)-6-oxopyrimidin-1(6H)-yl)-N-(4-(2-methyl-1H-imidazol-1-yl)phenyl)-3-phenylpropanamide] | 111 nM
16 | O=C(Nc1ccc(-n2ccnc2)cc1)[C@H](Cc1ccccc1)n1cnc(-c2cc(Cl)ccc2-n2cc(Cl)nn2)cc1=O [Example 94, (S)-N-(4-(1H-imidazol-1-yl)phenyl)-2-(4-(5-chloro-2-(4-chloro-1H-1,2,3-triazol-1-yl)phenyl)-6-oxopyrimidin-1(6H)-yl)-3-phenylpropanamide] | 25.7 nM
17 | CN(C)Cc1nccn1-c1ccc(NC(=O)[C@H](Cc2ccccc2)n2cnc(-c3cc(Cl)ccc3-n3cc(Cl)nn3)cc2=O)c(F)c1 [Example 95, (S)-2-(4-(5-chloro-2-(4-chloro-1H-1,2,3-triazol-1-yl)phenyl)-6-oxopyrimidin-1(6H)-yl)-N-(4-(2-((dimethylamino)methyl)-1H-imidazol-1-yl)-2-fluorophenyl)-3-phenylpropanamide] | 783 nM
18 | O=C1NCCc2cc(NC(=O)[C@H](Cc3ccccc3)n3cnc(-c4cc(Cl)ccc4-n4cc(Cl)nn4)cc3=O)ccc21 [Example 97, (S)-2-(4-(5-chloro-2-(4-chloro-1H-1,2,3-triazol-1-yl)phenyl)-6-oxopyrimidin-1(6H)-yl)-N-(1-oxo-1,2,3,4-tetrahydroisoquinolin-6-yl)-3-phenylpropanamide] | 27.8 nM
19 | Nc1n[nH]c2ccc(NC(=O)[C@H](Cc3ccccc3)n3cnc(-c4cc(Cl)ccc4-n4cc(Cl)nn4)cc3=O)cc12 [Example 98, (S)-N-(3-amino-1H-indazol-5-yl)-2-(4-(5-chloro-2-(4-chloro-1H-1,2,3-triazol-1-yl)phenyl)-6-oxopyrimidin-1(6H)-yl)-3-phenylpropanamide] | 554 nM
20 | O=C([C@H](Cc1ccccc1)n1cnc(-c2cc(Cl)ccc2-n2cc(Cl)nn2)cc1=O)N1CCn2ncnc2C1 [Example 99, (S)-6-(5-chloro-2-(4-chloro-1H-1,2,3-triazol-1-yl)phenyl)-3-(1-(5,6-dihydro-[1,2,4]triazolo[1,5-a]pyrazin-7(8H)-yl)-1-oxo-3-phenylpropan-2-yl)pyrimidin-4(3H)-one] | 7370 nM
21 | O=C(NCCc1cnccn1)[C@H](Cc1ccccc1)n1cnc(-c2cc(Cl)ccc2-n2cc(Cl)nn2)cc1=O [Example 100, (S)-2-(4-(5-chloro-2-(4-chloro-1H-1,2,3-triazol-1-yl)phenyl)-6-oxopyrimidin-1(6H)-yl)-3-phenyl-N-(2-(pyrazin-2-yl)ethyl)propanamide] | 7050 nM
22 | O=C1OCC[C@@H]1NC(=O)[C@H](Cc1ccccc1)n1cnc(-c2cc(Cl)ccc2-n2cc(Cl)nn2)cc1=O [Example 101, (S)-2-(4-(5-chloro-2-(4-chloro-1H-1,2,3-triazol-1-yl)phenyl)-6-oxopyrimidin-1(6H)-yl)-N-((S)-2-oxotetrahydrofuran-3-yl)-3-phenylpropanamide] | 7810 nM
23 | CC(=O)NC1CCN(C(=O)[C@H](Cc2ccccc2)n2cnc(-c3cc(Cl)ccc3-n3cc(Cl)nn3)cc2=O)CC1 [Example 102, (S)-N-(1-(2-(4-(5-chloro-2-(4-chloro-1H-1,2,3-triazol-1-yl)phenyl)-6-oxopyrimidin-1(6H)-yl)-3-phenylpropanoyl)piperidin-4-yl)acetamide] | 3050 nM
24 | O=C(NC1CCC(O)CC1)[C@H](Cc1ccccc1)n1cnc(-c2cc(Cl)ccc2-n2cc(Cl)nn2)cc1=O (stereo partly drawn) [Example 103, (S)-2-(4-(5-chloro-2-(4-chloro-1H-1,2,3-triazol-1-yl)phenyl)-6-oxopyrimidin-1(6H)-yl)-N-(4-hydroxycyclohexyl)-3-phenylpropanamide] | 127 nM
25 | O=C(NC1CCCCC1)[C@H](Cc1ccccc1)n1cnc(-c2cc(Cl)ccc2-n2cc(Cl)nn2)cc1=O [Example 104, (S)-2-(4-(5-chloro-2-(4-chloro-1H-1,2,3-triazol-1-yl)phenyl)-6-oxopyrimidin-1(6H)-yl)-N-cyclohexyl-3-phenylpropanamide] | 231 nM
26 | Cn1ccc(CNC(=O)[C@H](Cc2ccccc2)n2cnc(-c3cc(Cl)ccc3-n3cc(Cl)nn3)cc2=O)n1 [Example 105, (S)-2-(4-(5-chloro-2-(4-chloro-1H-1,2,3-triazol-1-yl)phenyl)-6-oxopyrimidin-1(6H)-yl)-N-((1-methyl-1H-pyrazol-3-yl)methyl)-3-phenylpropanamide] | 2290 nM
27 | Cc1ccc(NC(=O)[C@H](Cc2ccccc2)n2cnc(-c3cc(Cl)ccc3-n3cc(Cl)nn3)cc2=O)nn1 [Example 106, (S)-2-(4-(5-chloro-2-(4-chloro-1H-1,2,3-triazol-1-yl)phenyl)-6-oxopyrimidin-1(6H)-yl)-N-(6-methylpyridazin-3-yl)-3-phenylpropanamide] | 325 nM
